Experimental data as given in PubChem BioAssay (NCI).
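Results reflect a 48-hour exposure of cells in 96-well plates to compound at five concentrations. At the TGI there is no net growth.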

Columns and labels:
Test in all cases: DTP human tumour cell line panel, 48 h
NCI-H522 lung = test system: NCI-H522 lung
RPMI-8226 leukemia = test system: RPMI-8226 leukemia
CCRF-CEM leukemia = test system: CCRF-CEM leukemia
SK-MEL-2 melanoma = test system: SK-MEL-2 melanoma
DU-145 prostate = test system: DU-145 prostate
SK-MEL-5 melanoma = test system: SK-MEL-5 melanoma
UO-31 renal = test system: UO-31 renal
MDA-MB-435 = test system: MDA-MB-435
OVCAR-8 ovarian = test system: OVCAR-8 ovarian
SN12C renal = test system: SN12C renal
T-47D breast = test system: T-47D breast
MALME-3M melanoma = test system: MALME-3M melanoma
A498 renal = test system: A498 renal
HOP-62 NSCLC = test system: HOP-62 NSCLC
HCC-2998 colon = test system: HCC-2998 colon
NCI-H23 lung = test system: NCI-H23 lung
RXF 393 renal = test system: RXF 393 renal
LOX IMVI melanoma = test system: LOX IMVI melanoma
KM12 colon = test system: KM12 colon
K-562 leukemia = test system: K-562 leukemia
HOP-92 NSCLC = test system: HOP-92 NSCLC
MCF7 breast = test system: MCF7 breast
HT29 colon = test system: HT29 colon
HCT-116 colon = test system: HCT-116 colon
NCI/ADR-RES ovarian = test system: NCI/ADR-RES ovarian
MDA-N = test system: MDA-N
MDA-MB-231 breast = test system: MDA-MB-231 breast
M14 melanoma = test system: M14 melanoma
OVCAR-5 ovarian = test system: OVCAR-5 ovarian
BT-549 breast = test system: BT-549 breast
SK-MEL-28 melanoma = test system: SK-MEL-28 melanoma
SR leukemia = test system: SR leukemia
UACC-62 melanoma = test system: UACC-62 melanoma
NCI-H226 lung = test system: NCI-H226 lung
A549 NSCLC = test system: A549 NSCLC
PC-3 prostate = test system: PC-3 prostate
786-0 renal = test system: 786-0 renal
SNB-75 CNS = test system: SNB-75 CNS
MOLT-4 leukemia = test system: MOLT-4 leukemia
SW-620 colon = test system: SW-620 colon
TK-10 renal = test system: TK-10 renal
ACHN renal = test system: ACHN renal
UACC-257 melanoma = test system: UACC-257 melanoma
HS 578T breast = test system: HS 578T breast
SF-268 CNS = test system: SF-268 CNS
OVCAR-4 ovarian = test system: OVCAR-4 ovarian
HL-60(TB) leukemia = test system: HL-60(TB) leukemia
EKVX NSCLC = test system: EKVX NSCLC
SNB-19 CNS = test system: SNB-19 CNS
OVCAR-3 ovarian = test system: OVCAR-3 ovarian
IGROV1 ovarian = test system: IGROV1 ovarian
U251 CNS = test system: U251 CNS
SF-295 CNS = test system: SF-295 CNS
HCT-15 colon = test system: HCT-15 colon
COLO 205 colon = test system: COLO 205 colon
CAKI-1 renal = test system: CAKI-1 renal
NCI-H460 lung = test system: NCI-H460 lung
SK-OV-3 ovarian = test system: SK-OV-3 ovarian
SF-539 CNS = test system: SF-539 CNS

Measured: TGI

Cc1ccc(N2CN3OC(=O)N(c4ccccc4)[C@@]3(c3ccccc3)C2)cc1
88.1 µM: T-47D breast
> 100 µM: all other assays above

O=C(Nc1sccc1S(=O)(=O)c1ccc(Cl)cc1)c1ccc(Cl)cc1
90.4 µM: PC-3 prostate
> 100 µM: all other assays above
